Assay results from the kinase profiling compilation of Christmann-Franck et al. (2016).

How the values were obtained:
Experiment in all cases: KINOMEscan competition binding
Conditions in all cases: compound 10.0 µM
EIF2AK1 (human) = EIF2AK1 (human) (UniProt Q9BQI3)
MATK (human) = MATK (human) (UniProt P42679)
NEK4 (human) = NEK4 (human) (UniProt P51957)
MET (human) = MET (human) (UniProt P08581)
PKN3 (M.tuberculosis) = PKN3 (M.tuberculosis) (UniProt Q6P5Z2)
GRK1 (human) = GRK1 (human) (UniProt Q15835)
CASK (human) = CASK (human) (UniProt O14936)
TBK1 (human) = TBK1 (human) (UniProt Q9UHD2)
MYLK3 (human) = MYLK3 (human) (UniProt Q32MK0)
MAP2K5 (human) = MAP2K5 (human) (UniProt Q13163)
[1] = test system: PIK3CA (human), P42336 [I800L]
MAP3K1 (human) = MAP3K1 (human) (UniProt Q13233)
ROCK1 (human) = ROCK1 (human) (UniProt Q13464)
Chain of ROCK1 (human) (Q13464 whole entry, looked up): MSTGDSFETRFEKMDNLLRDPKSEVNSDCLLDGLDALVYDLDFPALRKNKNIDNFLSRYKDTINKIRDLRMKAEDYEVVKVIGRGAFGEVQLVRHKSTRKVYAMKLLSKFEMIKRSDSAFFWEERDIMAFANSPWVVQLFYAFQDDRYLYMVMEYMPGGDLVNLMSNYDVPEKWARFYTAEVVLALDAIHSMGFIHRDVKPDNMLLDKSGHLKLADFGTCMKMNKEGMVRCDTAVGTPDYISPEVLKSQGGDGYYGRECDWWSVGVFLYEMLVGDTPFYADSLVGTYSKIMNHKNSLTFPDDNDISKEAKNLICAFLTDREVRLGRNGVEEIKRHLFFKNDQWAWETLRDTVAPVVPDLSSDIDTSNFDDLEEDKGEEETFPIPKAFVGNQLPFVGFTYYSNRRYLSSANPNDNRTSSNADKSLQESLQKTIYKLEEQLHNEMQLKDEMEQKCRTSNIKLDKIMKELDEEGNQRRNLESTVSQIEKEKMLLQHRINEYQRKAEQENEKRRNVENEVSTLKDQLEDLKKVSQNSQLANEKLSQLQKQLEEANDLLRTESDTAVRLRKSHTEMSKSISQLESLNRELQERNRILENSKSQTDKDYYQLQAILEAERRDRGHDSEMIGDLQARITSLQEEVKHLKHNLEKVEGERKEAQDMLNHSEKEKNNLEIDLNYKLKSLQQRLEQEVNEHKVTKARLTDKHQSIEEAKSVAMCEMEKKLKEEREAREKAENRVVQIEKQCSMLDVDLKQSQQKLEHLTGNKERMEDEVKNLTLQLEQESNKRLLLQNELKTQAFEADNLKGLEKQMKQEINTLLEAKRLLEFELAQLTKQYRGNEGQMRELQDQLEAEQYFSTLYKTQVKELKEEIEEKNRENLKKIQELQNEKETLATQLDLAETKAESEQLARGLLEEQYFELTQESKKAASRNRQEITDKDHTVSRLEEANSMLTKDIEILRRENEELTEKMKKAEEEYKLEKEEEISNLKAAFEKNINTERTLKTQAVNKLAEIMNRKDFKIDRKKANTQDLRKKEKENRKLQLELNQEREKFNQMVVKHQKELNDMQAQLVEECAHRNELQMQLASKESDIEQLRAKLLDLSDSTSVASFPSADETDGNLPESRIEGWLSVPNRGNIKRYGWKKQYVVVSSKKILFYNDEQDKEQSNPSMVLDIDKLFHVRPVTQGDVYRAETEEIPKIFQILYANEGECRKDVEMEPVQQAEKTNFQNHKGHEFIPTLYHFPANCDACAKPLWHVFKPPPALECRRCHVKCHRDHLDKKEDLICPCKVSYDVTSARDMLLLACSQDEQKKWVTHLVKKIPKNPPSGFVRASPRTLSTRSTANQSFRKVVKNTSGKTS

[2] = test system: PIK3CA (human), P42336 [E545A]
VRK2 (human) = VRK2 (human) (UniProt Q86Y07)
HIPK2 (human) = HIPK2 (human) (UniProt Q9H2X6)
Chain of HIPK2 (human) (Q9H2X6 whole entry, looked up): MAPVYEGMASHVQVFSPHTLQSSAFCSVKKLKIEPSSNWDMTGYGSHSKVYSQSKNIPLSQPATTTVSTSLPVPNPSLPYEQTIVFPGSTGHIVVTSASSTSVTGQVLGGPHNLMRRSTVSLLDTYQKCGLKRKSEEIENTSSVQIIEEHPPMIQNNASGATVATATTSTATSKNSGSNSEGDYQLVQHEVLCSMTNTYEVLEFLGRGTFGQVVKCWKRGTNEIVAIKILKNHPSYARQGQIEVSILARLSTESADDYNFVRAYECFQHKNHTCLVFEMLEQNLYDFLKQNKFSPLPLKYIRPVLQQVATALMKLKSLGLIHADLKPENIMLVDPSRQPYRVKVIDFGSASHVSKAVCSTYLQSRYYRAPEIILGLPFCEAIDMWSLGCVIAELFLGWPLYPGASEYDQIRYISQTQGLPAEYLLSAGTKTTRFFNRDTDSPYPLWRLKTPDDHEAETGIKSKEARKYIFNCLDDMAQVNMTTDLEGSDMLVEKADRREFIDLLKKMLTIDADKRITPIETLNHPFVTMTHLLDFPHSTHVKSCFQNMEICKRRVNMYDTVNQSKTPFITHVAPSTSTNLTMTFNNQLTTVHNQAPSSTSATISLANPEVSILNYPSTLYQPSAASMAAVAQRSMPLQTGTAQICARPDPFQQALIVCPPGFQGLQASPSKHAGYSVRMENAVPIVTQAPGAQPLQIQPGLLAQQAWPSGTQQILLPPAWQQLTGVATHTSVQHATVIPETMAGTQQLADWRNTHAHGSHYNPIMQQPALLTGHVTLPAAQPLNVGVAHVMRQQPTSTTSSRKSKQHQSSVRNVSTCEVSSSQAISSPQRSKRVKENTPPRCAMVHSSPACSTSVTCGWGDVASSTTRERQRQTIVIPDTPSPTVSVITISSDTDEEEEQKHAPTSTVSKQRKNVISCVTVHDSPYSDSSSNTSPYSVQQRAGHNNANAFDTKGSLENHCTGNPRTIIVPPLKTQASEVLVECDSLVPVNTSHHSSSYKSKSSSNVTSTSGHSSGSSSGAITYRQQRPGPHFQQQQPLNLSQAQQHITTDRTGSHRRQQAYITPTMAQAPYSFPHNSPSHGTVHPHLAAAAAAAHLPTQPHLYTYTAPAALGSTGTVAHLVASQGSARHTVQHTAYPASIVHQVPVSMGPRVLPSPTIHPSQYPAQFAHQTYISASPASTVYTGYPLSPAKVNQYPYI

TRPM6 (human) = TRPM6 (human) (UniProt Q9BX84)
[3] = test system: KIT (human), P10721 [V559D/T670I]
PLK2 (human) = PLK2 (human) (UniProt Q9NYY3)
Chain of PLK2 (human) (Q9NYY3 whole entry, looked up): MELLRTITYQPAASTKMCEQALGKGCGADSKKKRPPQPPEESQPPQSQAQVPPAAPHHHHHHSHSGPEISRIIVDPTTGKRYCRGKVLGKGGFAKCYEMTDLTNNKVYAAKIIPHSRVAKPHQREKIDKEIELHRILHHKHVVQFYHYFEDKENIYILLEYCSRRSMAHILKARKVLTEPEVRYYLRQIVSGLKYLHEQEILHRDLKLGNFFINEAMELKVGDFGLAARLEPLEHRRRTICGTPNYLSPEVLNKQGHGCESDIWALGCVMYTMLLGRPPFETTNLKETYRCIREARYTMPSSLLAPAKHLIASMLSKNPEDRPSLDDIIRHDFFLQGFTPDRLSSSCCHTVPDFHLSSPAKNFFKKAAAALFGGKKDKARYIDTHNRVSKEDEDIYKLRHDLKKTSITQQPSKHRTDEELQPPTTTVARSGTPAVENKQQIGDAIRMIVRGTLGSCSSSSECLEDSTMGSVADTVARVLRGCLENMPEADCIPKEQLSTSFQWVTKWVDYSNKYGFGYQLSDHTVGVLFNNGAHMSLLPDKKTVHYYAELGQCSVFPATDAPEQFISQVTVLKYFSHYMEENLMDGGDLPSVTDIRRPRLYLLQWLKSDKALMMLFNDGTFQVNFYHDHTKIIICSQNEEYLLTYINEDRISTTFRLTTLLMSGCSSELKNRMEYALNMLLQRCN

SIK3 (human) = SIK3 (human) (UniProt Q9Y2K2)
[4] = test system: EGFR (human), P00533 [L861Q]
TAOK2 (human) = TAOK2 (human) (UniProt Q9UL54)
BTK (human) = BTK (human) (UniProt Q06187)
PRPF4B (human) = PRPF4B (human) (UniProt Q13523)
IRAK1 (human) = IRAK1 (human) (UniProt P51617)
STK38 (human) = STK38 (human) (UniProt Q15208)
CDK2 (human) = CDK2 (human) (UniProt P24941)
[5] = test system: EGFR (human), P00533 [P753S; 747-752 del]
LRRK2 (human) = LRRK2 (human) (UniProt Q5S007)
MAP3K15 (human) = MAP3K15 (human) (UniProt Q6ZN16)
MAP3K2 (human) = MAP3K2 (human) (UniProt Q9Y2U5)
NEK11 (human) = NEK11 (human) (UniProt Q8NG66)
Chain of NEK11 (human) (Q8NG66 whole entry, looked up): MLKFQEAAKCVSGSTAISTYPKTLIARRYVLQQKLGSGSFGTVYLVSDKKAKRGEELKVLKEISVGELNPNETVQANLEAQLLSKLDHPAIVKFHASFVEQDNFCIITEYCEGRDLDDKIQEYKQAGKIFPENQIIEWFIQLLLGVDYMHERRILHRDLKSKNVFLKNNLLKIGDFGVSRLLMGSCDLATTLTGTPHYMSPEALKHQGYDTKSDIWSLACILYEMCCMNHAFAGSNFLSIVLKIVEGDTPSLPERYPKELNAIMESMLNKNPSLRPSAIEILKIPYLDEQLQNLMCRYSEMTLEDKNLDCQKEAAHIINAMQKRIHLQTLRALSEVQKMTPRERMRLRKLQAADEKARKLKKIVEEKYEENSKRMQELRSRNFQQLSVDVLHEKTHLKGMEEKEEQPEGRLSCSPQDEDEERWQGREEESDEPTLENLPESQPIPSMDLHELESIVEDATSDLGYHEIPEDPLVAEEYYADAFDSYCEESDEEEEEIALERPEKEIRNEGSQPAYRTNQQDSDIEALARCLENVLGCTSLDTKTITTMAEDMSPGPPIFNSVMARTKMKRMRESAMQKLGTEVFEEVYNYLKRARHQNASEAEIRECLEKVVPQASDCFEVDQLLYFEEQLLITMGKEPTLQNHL

HIPK3 (human) = HIPK3 (human) (UniProt Q9H422)
EPHB6 (human) = EPHB6 (human) (UniProt O15197)
Chain of EPHB6 (human) (O15197 whole entry, looked up): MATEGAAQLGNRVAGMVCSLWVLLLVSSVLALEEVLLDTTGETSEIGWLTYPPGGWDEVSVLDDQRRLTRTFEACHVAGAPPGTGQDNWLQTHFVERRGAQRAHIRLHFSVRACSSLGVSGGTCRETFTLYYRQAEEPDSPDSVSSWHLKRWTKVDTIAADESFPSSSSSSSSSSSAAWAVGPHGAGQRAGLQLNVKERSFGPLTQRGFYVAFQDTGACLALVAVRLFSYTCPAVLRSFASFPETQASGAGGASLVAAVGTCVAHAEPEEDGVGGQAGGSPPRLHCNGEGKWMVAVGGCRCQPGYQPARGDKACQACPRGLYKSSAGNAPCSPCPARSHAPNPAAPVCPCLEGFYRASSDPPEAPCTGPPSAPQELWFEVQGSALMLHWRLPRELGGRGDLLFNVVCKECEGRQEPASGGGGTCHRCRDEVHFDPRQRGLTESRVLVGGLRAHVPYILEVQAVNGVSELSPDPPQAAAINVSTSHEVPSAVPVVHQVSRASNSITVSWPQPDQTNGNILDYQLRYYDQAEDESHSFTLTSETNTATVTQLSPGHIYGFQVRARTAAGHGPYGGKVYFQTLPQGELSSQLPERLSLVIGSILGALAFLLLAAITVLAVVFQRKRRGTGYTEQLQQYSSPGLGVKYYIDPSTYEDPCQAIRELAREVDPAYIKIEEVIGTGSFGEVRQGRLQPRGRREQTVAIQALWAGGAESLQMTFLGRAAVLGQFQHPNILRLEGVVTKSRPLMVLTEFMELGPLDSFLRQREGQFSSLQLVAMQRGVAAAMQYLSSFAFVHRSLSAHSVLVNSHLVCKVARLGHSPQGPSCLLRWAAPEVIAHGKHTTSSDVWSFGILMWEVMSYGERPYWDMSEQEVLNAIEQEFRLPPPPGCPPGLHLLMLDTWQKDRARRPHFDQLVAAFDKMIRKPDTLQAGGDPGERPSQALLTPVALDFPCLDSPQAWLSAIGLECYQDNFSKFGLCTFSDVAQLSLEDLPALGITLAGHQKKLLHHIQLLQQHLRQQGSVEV

SNRK (human) = SNRK (human) (UniProt Q9NRH2)
CDKL5 (human) = CDKL5 (human) (UniProt O76039)
GRK4 (human) = GRK4 (human) (UniProt P32298)
HUNK (human) = HUNK (human) (UniProt P57058)
IRAK4 (human) = IRAK4 (human) (UniProt Q9NWZ3)
MTOR (human) = MTOR (human) (UniProt P42345)

`CN(C)C/C=C/C(=O)Nc1cccc(Nc2ncc3c(n2)N(C)c2ccccc2C(=O)N3C)c1` gave a kinase still bound, per cent of control (EIF2AK1 (human)) of 100%, a kinase still bound, per cent of control (MATK (human)) of 69% and a kinase still bound, per cent of control (NEK4 (human)) of 87%. It also gave a kinase still bound, per cent of control (MET (human)) of 48%, a kinase still bound, per cent of control (PKN3 (M.tuberculosis)) of 42% and a kinase still bound, per cent of control (GRK1 (human)) of 100%. For the same compound, the kinase still bound, per cent of control (CASK (human)) was 39%, the kinase still bound, per cent of control (TBK1 (human)) was 58% and the kinase still bound, per cent of control (MYLK3 (human)) was 100%. It also gave a kinase still bound, per cent of control (MAP2K5 (human)) of 45%, a kinase still bound, per cent of control [1] of 55% and a kinase still bound, per cent of control (MAP3K1 (human)) of 72%. It also gave a kinase still bound, per cent of control (ROCK1 (human)) of 49%, a kinase still bound, per cent of control [2] of 67% and a kinase still bound, per cent of control (VRK2 (human)) of 73%. The kinase still bound, per cent of control (HIPK2 (human)) was 89%, the kinase still bound, per cent of control (TRPM6 (human)) was 91% and the kinase still bound, per cent of control [3] was 65%. The kinase still bound, per cent of control (PLK2 (human)) was 37%, the kinase still bound, per cent of control (SIK3 (human)) was 20% and the kinase still bound, per cent of control [4] was 73%. The kinase still bound, per cent of control (TAOK2 (human)) was 0%, the kinase still bound, per cent of control (BTK (human)) was 42% and the kinase still bound, per cent of control (PRPF4B (human)) was 100%. The kinase still bound, per cent of control (IRAK1 (human)) was 19%, the kinase still bound, per cent of control (STK38 (human)) was 74% and the kinase still bound, per cent of control (CDK2 (human)) was 94%. For the same compound, the kinase still bound, per cent of control [5] was 100%, the kinase still bound, per cent of control (LRRK2 (human)) was 31% and the kinase still bound, per cent of control (MAP3K15 (human)) was 69%. It also gave a kinase still bound, per cent of control (MAP3K2 (human)) of 0.1%, a kinase still bound, per cent of control (NEK11 (human)) of 77% and a kinase still bound, per cent of control (HIPK3 (human)) of 85%. The kinase still bound, per cent of control (EPHB6 (human)) was 4.3%, the kinase still bound, per cent of control (SNRK (human)) was 58% and the kinase still bound, per cent of control (CDKL5 (human)) was 100%. For the same compound, the kinase still bound, per cent of control (GRK4 (human)) was 66%, the kinase still bound, per cent of control (HUNK (human)) was 47% and the kinase still bound, per cent of control (IRAK4 (human)) was 73%. For the same compound, the kinase still bound, per cent of control (MTOR (human)) was 74%.
